Results: patent US9289443B2, “Pharmaceutical composition and method for preventing or treating hepatitis C” (INDUSTRIAL TECHNOLOGY RESEARCH INSTITUTE, priority 2010, dated 2016)
Where two headings read alike, the source gives them in different places.

Experiments:
[1] = Cell cytotoxic test (MTT) on Huh-luc/neo-ET cells; assay type: cell-based; details: human, concentration for 50% cell kill, two-day culture
Description: (§1) Cell Cytotoxic Test on Huh-luc/noe-ET Cells
(§2) Huh-luc/neo-ET cells with a concentration of 2.5×10^4 cells/100 μl/well were seeded into a 96 well culture plate (Corning Incorporation COSTAR, 3599) and placed into a cell incubator for culturing.
(§3) The next day, the oleanolic acid derivatives as listed in the following Tables 1 and 2 were diluted with a DMEM culture medium to the concentrations of 28.73 μg/ml, 9.57 μg/ml, 3.19 μg/ml, 1.06 μg/ml, 0.35 μg/ml, 0.11 μg/ml, 0.039 μg/ml and 0.013 μg/ml, respectively, or diluted to the concentrations of 114.92 μg/ml, 38.33 μg/ml, 12.77 μg/ml, 4.25 μg/ml, 1.42 μg/ml, 0.46 μg/ml, 0.16 μg/ml and 0.057 μg/ml, respectively. The initial medium in the 96 well culture plate was sucked out by a vacuum pump (DOAT-704AA) without removing the cells. Then, the culture medium containing the oleanolic acid derivatives were added into the 96 well culture plate containing 100 μl/well of the cells as the experiment groups, while the untreated culture mediums were added to the cells as a control.
(§4) After a two-day culture, the medium was removed and each well containing cells was washed by 100 μl of 1×PBS (1 mM KH2PO4, 10 mM Na2HPO4, 137 mM NaCl, 2.7 mM KCl) twice. Precipitates were recorded and PBS was removed. 50 μl of the medium containing 0.5 mg/ml of MTT (Sigma, M2128) was added into each well of the 96 well culture plate. The 96 well culture plate was placed in a CO2 culture incubator for 1 hour. Subsequently, 150 μl of DMSO (Riedel-de Haül, 60153) was added to each well of the 96 well culture plate and vortexed (KS shaker Type 670) to thoroughly mix the resulting purple precipitates. The 96 well culture plate was then placed in a continuous wave length microwell plate analysis system (Molecular Devices, SPECTRAMAX 190) to measure the absorbance of cells at a wavelength of 560 nm.
(§5) The average absorbance of the control was set as 100% of the cell survival rates (%) to calculate the cell survival rates (%) of the experiment groups with different concentrations of the oleanolic acid derivatives.
(§6) The cell survival rate was calculated by the following formula: Absorbance of the experiment group/Absorbance of the control×100%
(§7) The data of the cell survival rates for all experiment groups were plotted on an x-y graph to see the distribution. A trend line was obtained. […]

[2] = tested on: Huh-luc/neo-ET cells; assay: Cell cytotoxic test (MTT) on Huh-luc/neo-ET cells; assay type: cell-based; details: two-day culture; for CC15: concentration for 15% cell kill; for CC50: concentration for 50% cell kill
Description: as §1, §2, §3, §4, §5, §6, §7

[3] = tested on: HCV replicon system (Huh-luc/neo-ET cell carrying I389luc-ubi-NS3-3'/ET); assay: Inhibition of the HCV replication by determining the firefly luciferase activity (HCV replicon system); assay type: cell-based, Hepatitis C virus; details: for EW (CC50/IC50): ratio of CC50/IC50
Excerpt: HCV replicon system was used to test the effects of compounds on the treatment and prevention of hepatitis C. The HCV replicon system has been acknowledged as a screening tool for new drugs (Lohmann, V. et al., 1999, Replication of subgenomic hepatitis C virus RNAs in hepatoma cell line, Science. Vol. 285, 110-113; Bartenschlager, R. 2002, Hepatitis C virus replicons: potential role for drug development, Nature Reviews/Drug Discovery. Vol. 1, 911-916; Vorlijk, J. M. et al., 2003, A replicon-based bioassay for the measurement of interferons in patients with chronic hepatitis C, Journal of Virological Methods. 110:201-209). The HCV replicon system includes a Huh-luc/neo-ET cell carrying I389luc-ubi-NS3-3′/ET gene construct which monitors the replicative capability of the HCV. In the HCV replicon system, a firefly luciferase-ubiquitin-neomycin fusion protein is expressed by the translation of the internal ribosomal entry site (IRES) of the HCV, and the hepatitis C viral nonstructural proteins (NS3-5B), which includes protease, helicase and polymerase, are expressed by the translation of the IRES of the encephalomyocarditis virus (EMCV).
The IRES of the hepatitis C virus or the hepatitis C viral nonstructural proteins consist of a replication complex. When the replication complex is affected by the candidate compound, the activity of the HCV replicon system is inhibited and the activity of the luciferase is reduced. Accordingly, the inhibition of the HCV can be estimated by determining the activity of the intensity of the luciferase expressed by the Huh-luc/noe-ET cell.
Inhibition of the HCV Replication by Determining the Firefly Luciferase Activity
as §2
The oleanolic acid derivatives as listed in Table 2 were co-cultured with Huh-luc/neo-ET cells for 2 days. The mediums were washed twice by 100 μl of 1×PBS (1 mM KH2PO4, 10 mM Na2HPO4, 137 mM NaCl, 2.7 mM KCl) and PBS was removed. 35 μl of 1× passive lysis buffer (Promega, E1941) was added to the cells and vortexed for 10 minutes to thoroughly lysis the cells.
30 μl/well of the cell suspension was then added to a 96 well white plate (NUNC, 236108) for the measurement of the luciferase activity. Subsequently, 40 μl/well of luminescence analysis buffer and 20 μl/well of luminescence substrate (1 mM D-Luciferin) were added into the 96 well white plates. The luciferase activity (Rlu/s) was measured by a microplate luminescence meter (Berthold, MPL4) immediately.
The luciferase activity of the control was set as a standard to calculate the inhibition rates (%) of HCV of the experiment groups. The inhibition rates was calculated by the following formula: […]
After the test compounds were serial diluted and the inhibition rates of the HCV replication were determined at different concentrations, the concentration at 50% inhibition of the HCV replication (IC50) was calculated by grafit5 software (Erithacus Software).
For each experiment, 0.5 ng/ml and 0.1 ng/ml of the PEG IFN alpha-2a were used as positive controls for the IC50 test. Meanwhile, 1 μg/ml of cyclosporine A (CsA) was also used as a positive control for the IC50 test.

[4] = Hepatitis C virus, Huh-luc/neo-ET, 48 h, compound concentration 10 μM, 2 days co-culture, luciferase activity, read-out: Inhibition rate (%)
[5] = Hepatitis C virus, concentration for 50% inhibition of the HCV replication, Huh-luc/neo-ET replicon cells, read-out: IC50
[6] = Hepatitis C virus, Huh-luc/neo-ET
[7] = Hepatitis C virus, Huh-luc/neo-ET, 48 h, read-out: Inhibition rate (%)
[8] = compound concentration 10 μM, 2 days co-culture, luciferase activity

| Structure (SMILES) | CC50 at 2 days [1] [µM] | CC15 [2] [µM] | inhibition at 10 µM [3, 4] [%] | IC50 [3, 5] [µM] | EW (CC50/IC50) [3] | other results |
| --- | --- | --- | --- | --- | --- | --- |
| C=CC(C)(O)CC/C=C(\C)C(=O)OC1C(O)C(CO)OC(OC(=O)C23CCC(C)(C)CC2C2=CCC4C5(C)CCC(OC6OC(COC7OCC(O)C(O)C7OC7OCC(O)C(O)C7O)C(O)C(O)C6O)C(C)(C)C5CCC4(C)C2(C)CC3O)C1OC1OC(CO)C(OC2OCC(O)C(OC3OCC(O)C(O)C3O)C2O)C(O)C1O (centres unmarked) [A26] | 38.4 | 7.94 | 95.6 ± 1.2 | 0.45 ± 0.04 | 85.24 |  |
| CC(=O)OCC1OC(OC2COC(OC3COC(OC4C(OC5C(CO)OC(OC6CCC7(C)C(CCC8(C)C7CC=C7C9CC(C)(C)CCC9(C(=O)OC9OC(CO)C(O)C(O)C9OC9OCC(O)C(OC%10OCC(O)(CO)C%10O)C9O)C(O)CC78C)C6(C)C)C(O)C5O)OCC(O)C4O)C(O)C3O)C(O)C2O)C(OC(=O)/C=C/c2ccccc2)C(O)C1OC(C)=O (centres unmarked) [A06] | 25.2 | 8.9 |  | 0.01 ± 0.004 | 2520 | inhibition at 8 µM ([3]; Hepatitis C virus, Huh-luc/neo-ET, 48 h, compound concentration 8 μM, 2 days co-culture, luciferase activity, read-out: Inhibition rate (%)): 94.7 ± 1.1% |
| C=CC(C)(O)CCCC(C)C(=O)OC1C(C)OC(OC(C)(C=C)CC/C=C(\CO)C(=O)OC2CC3(C(=O)OC4OCC(OC5OC(CO)C(O)C(OC6OC(CO)C(OC7OC(C)C(O)C(O)C7O)C(O)C6O)C5O)C(O)C4O)CCC4(C)C(=CCC5C6(C)CCC(OC7OC(CO)C(OC8OC(CO)C(O)C(OC9OCC(O)C(O)C9O)C8O)C(O)C7O)C(C)(C)C6CCC54C)C3CC2(C)C)C(O)C1O (centres unmarked) [A23] | 38.1 | 7.96 |  |  | 156.73 | IC50 [3, 6]: 0.23 ± 0.02 µM; inhibition at 5 µM [3, 7]: 93.5 ± 0.4% |
| C=CC(C)(O)CC/C=C(\C)C(=O)OC1C(O)C(CO)OC(OC(=O)C23CCC(C)(C)CC2C2=CCC4C5(C)CCC(OC6OC(COC7OCC(OC(C)=O)C(O)C7OC7OC(COC(C)=O)C(O)C(O)C7OC(C)=O)C(O)C(O)C6OC6OCC(O)C(O)C6O)C(C)(C)C5CCC4(C)C2(C)C(O)C3O)C1OC1OCC(OC2OCC(O)C(OC3OCC(O)C(O)C3O)C2O)C(O)C1O (centres unmarked) [A19] | 17.9 | 1.17 |  | 0.041 ± 0.005 | 435.61 | inhibition at 1 µM ([3]; Hepatitis C virus, Huh-luc/neo-ET, 48 h, compound concentration 1 μM, 2 days co-culture, luciferase activity, read-out: Inhibition rate (%)): 94.8 ± 1.6% |
| C/C=C(/C)C(=O)OC1CC(C)(C)CC2C3=CCC4C5(C)CCC(OC6OC(C)C(OC7OC(C(=O)O)C(O)C(OC8OC(CO)C(O)C(O)C8OC8OC(CO)C(O)C(O)C8O)C7O)C(O)C6O)C(C)(C)C5CCC4(C)C3(C)C(OC(=O)/C=C/C=C/C=C/CCC)C(O)C12CO (centres unmarked) [A14] | > 100 | 5.9 |  |  | 51.28 | IC50 [3, 6]: 1.95 ± 0.12 µM; inhibition at 5 µM [3, 7]: 89.3 ± 0.8% |
| COc1ccc(/C=C/C(=O)OC2C(C)OC(OC(=O)C34CCC(C)(C)CC3C3=CCC5[C@@]6(C)CC[C@H](OC7OC(C(=O)O)C(O)C(O)C7OC7OC(CO)C(O)C(O)C7O)[C@@](C)(C=O)C6CC[C@@]5(C)[C@]3(C)C[C@H]4O)C(OC3OC(C)C(O)C(O)C3OC3OCC(O)C(O)C3O)C2O)cc1 (some centres unmarked) [A12] | > 100 | >100 |  |  | 1250 | IC50 [3, 6]: 0.08 ± 0.003 µM; inhibition at 10 µM [3, 7]: 95.8 ± 1% |
| C=CC(C)(O)CC/C=C(\C)C(=O)OC1C(OCC2OC(OC(=O)C34CCC(C)(C)CC3C3=CCC5C6(C)CCC(OC7OC(COC8OCC(O)C(O)C8OC8OCC(O)C(O)C8O)C(O)C(O)C7O)C(C)(C)C6CCC5(C)C3(C)CC4O)C(OC3OC(C)C(OC4OCC(O)C(OC5OCC(O)C(O)C5O)C4O)C(O)C3O)C(OC(=O)/C(C)=C/CCC(C)(O)C=C)C2O)OC(C)C(O)C1O (centres unmarked) [A21] | 56.7 | 11.64 | 97.3 ± 1.1 | 0.63 ± 0.07 | 90.03 |  |
| C/C=C(\C)C(=O)OC1C(OC(C)=O)C2(C(=O)O)C(CC1(C)C)C1=CCC3C4(C)CCC(OC5OC(CO)C(O)C(OC6OC(CO)C(O)C(OC7OC(C)C(O)C(O)C7O)C6O)C5O)C(C)(C)C4CCC3(C)C1(C)C(OC(C)=O)C2OC(C)=O (centres unmarked) [A18] | 94.8 | 7.18 | 45 ± 2.9 |  |  |  |
| CC1(C)CC[C@]2(C(=O)O)CC[C@]3(C)C(=CCC4[C@@]5(C)C[C@@H](O)[C@H](OC(=O)/C=C/c6ccc(O)cc6)C(C)(C)C5CC[C@]43C)C2C1 (some centres unmarked) [A09] | 26.1 | 3.1 | 13.6 ± 0.5 |  |  |  |
| C[C@H]1O[C@@H](O[C@H]2CC[C@@]3(C)[C@@H](CC[C@]4(C)[C@@H]3C=C[C@]35OC[C@@]6(CCC(C)(C)C[C@H]63)[C@@H](O)C[C@]54C)[C@]2(C)CO)[C@H](O)[C@@H](O[C@@H]2O[C@H](CO)[C@@H](O)[C@H](O)[C@H]2O)[C@H]1O [A03, Saikosaponin A] |  | 12.7 |  |  |  | CC50 [2]: 23.1 µM; Inhibition rate (%) [3, 8]: 13.3 ± 8% |
| C[C@H]1O[C@@H](O[C@H]2CC[C@@]3(C)[C@@H](CC[C@]4(C)[C@@H]3C=C[C@]35OC[C@@]6(CCC(C)(C)C[C@H]63)[C@H](O)C[C@]54C)[C@]2(C)CO)[C@H](O)[C@@H](O[C@@H]2O[C@H](CO)[C@@H](O)[C@H](O)[C@H]2O)[C@H]1O [A05, Saikosaponin D] |  | 16.1 |  |  |  | CC50 [2]: 23.2 µM; Inhibition rate (%) [3, 8]: 50 ± 11.6% |
| C[C@@H]1O[C@@H](O[C@@H]2[C@H](O)[C@@H](O)[C@H](O[C@H]3CC[C@@]4(C)C(CC[C@]5(C)C4C=C[C@]46OC[C@@]7(CCC(C)(C)CC74)[C@@H](O)C[C@]65C)C3(C)C)O[C@@H]2CO[C@@H]2O[C@H](CO)[C@@H](O)[C@H](O)[C@H]2O)[C@H](O)[C@H](O)[C@H]1O (some centres unmarked) [A04, Saikosaponin C] |  | >100 |  |  |  | CC50 [2]: > 100 µM; Inhibition rate (%) [3, 8]: 3.1 ± 12.9% |
